# US20260053861A1, “CELL COMPOSITIONS AND METHODS OF USING THE SAME” (THE REGENTS OF THE UNIVERSITY OF CALIFORNIA, priority 2022, published 2026)
# Counter-ions that a name gives are not always drawn. Like-named read-outs stand apart in the source and are kept apart here.
# System: hPSC-SCs
# [1] = HTS viability of hPSC-SCs in the presence of 30 mM glucose, Prestwick library, Table S4
SMILES,z.score.t,z.score.t [1]
NCC1(CC(=O)O)CCCCC1 [Gabapentin],−0.496,–
c1cncc([C@@H]2CCCCN2)c1 [Anabasine],−0.1239,–
Nc1nc(=O)c2c([nH]1)NCC(CNc1ccc(C(=O)N[C@@H](CCC(=O)[O-])C(=O)[O-])cc1)N2C=O.[Ca+2] (stereo partly shown) [Folinic acid calcium salt],–,0.1244
CC1(C)NC(=O)N(c2ccc([N+](=O)[O-])c(C(F)(F)F)c2)C1=O [Nilutamide],–,0.1244
CNC(=O)c1c(I)c(C(=O)NCC(=O)Nc2c(I)c(C(=O)O)c(I)c(C(=O)NCCO)c2I)c(I)c(N(C)C(C)=O)c1I [Ioxaglic acid],–,1.475
CCNC1(c2cccs2)CCCCC1=O.Cl (stereo not shown) [Tiletamine hydrochloride],1.958,–
"COCCc1ccc(OCC(O)CNC(C)C)cc1.COCCc1ccc(OCC(O)CNC(C)C)cc1.O=C(O)C(O)C(O)C(=O)O (racemic) [Metoprolol-(+, −) (+)-tartrate salt]",–,1.223
O=C(Cn1ccnc1[N+](=O)[O-])NCCO [Etanidazole],–,0.1469
O=C(O)c1cc(=O)c2c(OCC(O)COc3cccc4oc(C(=O)O)cc(=O)c34)cccc2o1 [Cromolyn disodium salt],–,0.557
N[C@@H](Cc1cc(I)c(Oc2ccc(O)c(I)c2)c(I)c1)C(=O)O [Liothyronine],–,−1.539
CN1C(C(=O)Nc2ccccn2)=C(O)c2ccccc2S1(=O)=O [Piroxicam],–,−0.4161
CCC(=O)[C@@]1(C)[C@H](C)C[C@H]2[C@@H]3CCC4=CC(=O)C=C[C@]4(C)[C@H]3[C@@H](O)C[C@@]21C [Rimexolone],–,−1.354
COc1ccc2cc1Oc1ccc(cc1)C[C@H]1c3cc(c(OC)cc3CCN1C)Oc1c(OC)c(OC)cc3c1[C@H](C2)N(C)CC3 [Tetrandrine],–,−0.4538
O=C(CCNNC(=O)c1ccncc1)NCc1ccccc1 [Nialamide],–,−0.7018
C[C@@H]1C[C@@H]([C@H](O)CC2CC(=O)NC(=O)C2)C(=O)[C@@H](C)C1 [Cycloheximide],−2.003,–
NS(=O)(=O)c1cc2c(cc1Cl)NC(C(Cl)Cl)NS2(=O)=O (stereo not shown) [Trichlormethiazide],–,−0.03362
C=CC1=C(C(=O)O)N2C(=O)[C@@H](NC(=O)/C(=N\OCC(=O)O)c3csc(N)n3)[C@H]2SC1 [Cefixime],–,0.5046
CC(C)(C(=O)c1cccnc1)c1cccnc1 [Metyrapone],–,1.178
CCOC(=O)Oc1c(OC)cc(C(=O)O[C@@H]2C[C@@H]3CN4CCc5c([nH]c6cc(OC)ccc56)[C@H]4C[C@@H]3[C@H](C(=O)OC)[C@H]2OC)cc1OC [Syrosingopine],–,−0.4543
c1coc(CNc2ncnc3nc[nH]c23)c1 [6-Furfurylaminopurine],–,−0.7183
"Nc1c2c(nc3ccccc13)CCCC2O.O=C(O)/C=C\C(=O)O (racemic) [Hydroxytacrine maleate (R,S)]",0.713,–
COC(=O)Nc1nc2ccc(SC(C)C)cc2[nH]1 [Methiazole],−1.263,–
CC(C)(Oc1ccc(Cl)cc1)C(=O)O [Clofibric acid],–,−0.8317
CC(CNC1CCCCC1)OC(=O)c1ccccc1 (stereo not shown) [Hexylcaine hydrochloride],–,−0.6194
C[n+]1ccccc1/C=N/O [Pralidoxime chloride],−0.411,–
NCCCC[C@H](N[C@@H](CCc1ccccc1)C(=O)O)C(=O)N1CCC[C@H]1C(=O)O [Lisinopril],–,0.08508
CC(C[N+](C)(C)C)OC(N)=O (stereo not shown) [Bethanechol chloride],–,0.3236
CN1[C@@H]2C[C@@H](OC(=O)[C@H](CO)c3ccccc3)C[C@H]1[C@@H]1O[C@@H]12 [Scopolamine hydrochloride],0.07936,–

SMILES,z.score.t,z.score.t [1]
O=C(Nc1ccc([N+](=O)[O-])cc1Cl)c1cc(Cl)ccc1O [Niclosamide],–,−1.794
CC(C(=O)O)c1cccc(Oc2ccccc2)c1 (stereo not shown) [Fenoprofen calcium salt dihydrate],–,0.1244
CCCCN1CCCCC1C(=O)Nc1c(C)cccc1C (stereo not shown) [Bupivacaine hydrochloride],–,−0.3156
CCCOc1cc(N)ccc1C(=O)OCCN(CC)CC [Propoxycaine hydrochloride],–,−0.8229
CC[C@@H](CO)NC(=O)[C@@H]1C=C2c3cccc4[nH]cc(c34)C[C@H]2N(C)C1 [Methylergometrine maleate],1.669,–
NS(=O)(=O)c1cc(Cl)c(Cl)c(S(N)(=O)=O)c1 [Dichlorphenamide],–,−0.8317
Cc1ccc(Cl)c(Nc2ccccc2C(=O)O)c1Cl,–,−1.427
C=C1c2c(Cl)ccc(O)c2C(=O)C2=C(O)[C@]3(O)C(=O)C(C(N)=O)=C(O)[C@@H](N(C)C)[C@@H]3[C@@H](O)[C@H]12.O=C(O)c1cc(S(=O)(=O)O)ccc1O [Meclocycline sulfosalicylate],–,1.049
N#Cc1ccc(C(c2ccc(C#N)cc2)n2cncn2)cc1 [Letrozole],–,−0.4953
CC(C)[N+](C)(CCC(C(N)=O)(c1ccccc1)c1ccccc1)C(C)C [Isopropamide iodide],–,0.3675
COc1c(O[C@@H]2O[C@H](CO)[C@@H](O)[C@H](O)[C@H]2O)cc2c(c1OC)-c1ccc(SC)c(=O)cc1[C@@H](NC(C)=O)CC2 [Thiocolchicoside],1.11,–
CN1C(=O)CC(c2ccccc2)C1=O (stereo not shown) [Phensuximide],–,1.669
CC(C(=O)O)c1ccc(N2Cc3ccccc3C2=O)cc1 (stereo not shown) [Indoprofen],–,0.1916
c1cnc(N2CCN(Cc3ccc4c(c3)OCO4)CC2)nc1 [Piribedil hydrochloride],–,−1.291
CCC(=O)O[C@]1(C(=O)SCF)[C@H](C)C[C@H]2[C@@H]3C[C@H](F)C4=CC(=O)C=C[C@]4(C)[C@@]3(F)[C@@H](O)C[C@@]21C [Fluticasone propionate],–,0.1543
CCN(CC)CCNC(=O)COc1ccc(OC)cc1 [Mefexamide hydrochloride],–,0.189
NNc1nncc2ccccc12 [Hydralazine hydrochloride],–,1.472
CNC(=C[N+](=O)[O-])NCCSCc1ccc(CN(C)C)o1 [Ranitidine hydrochloride],–,0.4486
Cc1c(C)c2c(c(C)c1O)CCC(C)(C(=O)O)O2 (stereo not shown) [Trolox],–,2.048
CCN(CC)CCOC(=O)C(c1ccccc1)c1ccccc1 [Adiphenine hydrochloride],–,−0.765
"CC(=O)NC1[C@@H](O)OC(CO)[C@@H](O)[C@H]1O[C@H](C)C(=O)O (stereo in doubt) [Muramic acid, N-acetyl]",–,1.616
Cn1cc[nH]c1=S [Methimazole],–,−0.05622
COc1c(O)cc2c(c1O)[C@@H]1O[C@H](CO)[C@@H](O)[C@H](O)[C@H]1OC2=O [Bergenin monohydrate],–,1.238
OC(CCN1CCCC1)(c1ccccc1)C1CCCCC1 (stereo not shown) [Procyclidine hydrochloride],–,−0.0788
Cc1c(Cl)cccc1Nc1ncccc1C(=O)O.NCCCC[C@H](N)C(=O)O [Clonixin Lysinate],0.9603,–
Cc1cc(C)nc(NS(=O)(=O)c2ccc(N)cc2)n1 [Sulfamethazine sodium salt],–,0.3022
COC(=O)[C@H]1[C@H]2C[C@@H]3c4[nH]c5cc(OC)ccc5c4CCN3C[C@H]2C[C@@H](OC(=O)c2cc(OC)c(OC)c(OC)c2)[C@@H]1OC [Reserpine],–,−1.042
